# Reference: ChEMBL document CHEMBL1201862, “PubChem BioAssay data set” (2004)
# Where “and” joins values, the source holds several entries; their conditions need not be identical. Equal values may be shown once.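 The compound was tested at five concentrations on cells cultured in 96-well plates, with a 48-hour exposure period. The concentration for 50% growth inhibition is given as GI50.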 Calls of active or inactive are those of the source. Cut-off read from the data, not from the text of the source: active = GI50 up to about 1.1 µM and inactive = higher.
# Legend:
# Experiment in all cases: inhibition of tumour cell growth, NCI panel, 48 h
# 786-0 = system: 786-0
# A498 = system: A498
# A549 = system: A549
# ACHN = system: ACHN
# CAKI-1 = system: CAKI-1
# CCRF-CEM = system: CCRF-CEM
# COLO 205 = system: COLO 205
# DU-145 = system: DU-145
# EKVX = system: EKVX
# HCC 2998 = system: HCC 2998
# HCT-116 = system: HCT-116
# HCT-15 = system: HCT-15
# HL-60 = system: HL-60
# HOP-62 = system: HOP-62
# HOP-92 = system: HOP-92
# HT-29 = system: HT-29
# Hs-578T = system: Hs-578T
# IGROV-1 = system: IGROV-1
# K562 = system: K562
# KM12 = system: KM12
# LOX IMVI = system: LOX IMVI
# M14 = system: M14
# MCF7 = system: MCF7
# MDA-MB-231 = system: MDA-MB-231
# MDA-MB-435 = system: MDA-MB-435
# MDA-N = system: MDA-N
# MOLT-4 = system: MOLT-4
# Malme-3M = system: Malme-3M
# NCI-H226 = system: NCI-H226
# NCI-H23 = system: NCI-H23
# NCI-H460 = system: NCI-H460
# NCI-H522 = system: NCI-H522
# NCI/ADR-RES = system: NCI/ADR-RES
# OVCAR-3 = system: OVCAR-3
# OVCAR-4 = system: OVCAR-4
# OVCAR-5 = system: OVCAR-5
# OVCAR-8 = system: OVCAR-8
# PC-3 = system: PC-3
# RPMI-8226 = system: RPMI-8226
# RXF 393 = system: RXF 393
# SF-268 = system: SF-268
# SF-295 = system: SF-295
# SF-539 = system: SF-539
# SK-MEL-28 = system: SK-MEL-28
# SK-MEL-2 = system: SK-MEL-2
# SK-MEL-5 = system: SK-MEL-5
# SK-OV-3 = system: SK-OV-3
# SN12C = system: SN12C
# SNB-19 = system: SNB-19
# SNB-75 = system: SNB-75
# SR = system: SR
# SW-620 = system: SW-620
# T47D = system: T47D
# TK-10 = system: TK-10
# U-251 = system: U-251
# UACC-257 = system: UACC-257
# UACC-62 = system: UACC-62
# UO-31 = system: UO-31
# BT-549 = system: BT-549
smiles,measurement,setting,value
COc1cnc2cc(C(=O)O)c3ccccc3c2c1,GI50,786-0,> 100 µM (inactive)
same,GI50,A498,> 100 µM (inactive)
same,GI50,A549,> 100 µM (inactive)
same,GI50,ACHN,> 100 µM (inactive)
same,GI50,CAKI-1,> 100 µM (inactive)
same,GI50,CCRF-CEM,> 100 µM (inactive)
same,GI50,COLO 205,> 100 µM (inactive)
same,GI50,DU-145,> 100 µM (inactive)
same,GI50,EKVX,> 100 µM (inactive)
same,GI50,HCC 2998,> 100 µM (inactive)
same,GI50,HCT-116,> 100 µM (inactive)
same,GI50,HCT-15,> 100 µM
same,GI50,HL-60,> 100 µM (inactive)
same,GI50,HOP-62,> 100 µM (inactive)
same,GI50,HOP-92,> 100 µM (inactive)
same,GI50,HT-29,> 100 µM (inactive)
same,GI50,Hs-578T,> 100 µM (inactive)
same,GI50,IGROV-1,> 100 µM (inactive)
same,GI50,K562,> 100 µM (inactive)
same,GI50,KM12,> 100 µM (inactive)
same,GI50,LOX IMVI,> 100 µM (inactive)
same,GI50,M14,92.5 µM (inactive)
same,GI50,MCF7,> 100 µM (inactive)
same,GI50,MDA-MB-231,> 100 µM (inactive)
same,GI50,MDA-MB-435,> 100 µM (inactive)
same,GI50,MDA-N,> 100 µM (inactive)
same,GI50,MOLT-4,> 100 µM (inactive)
same,GI50,Malme-3M,> 100 µM (inactive)
same,GI50,NCI-H226,> 100 µM (inactive)
same,GI50,NCI-H23,> 100 µM (inactive)
same,GI50,NCI-H460,> 100 µM (inactive)
same,GI50,NCI-H522,> 100 µM (inactive)
same,GI50,NCI/ADR-RES,> 100 µM (inactive)
same,GI50,OVCAR-3,> 100 µM (inactive)
same,GI50,OVCAR-4,> 100 µM (inactive)
same,GI50,OVCAR-5,> 100 µM (inactive)
same,GI50,OVCAR-8,> 100 µM (inactive)
same,GI50,PC-3,> 100 µM (inactive)
same,GI50,RPMI-8226,28.1 µM (inactive)
same,GI50,RXF 393,> 100 µM (inactive)
same,GI50,SF-268,> 100 µM (inactive)
same,GI50,SF-295,> 100 µM (inactive)
same,GI50,SF-539,> 100 µM (inactive)
same,GI50,SK-MEL-28,> 100 µM (inactive)
same,GI50,SK-MEL-2,> 100 µM (inactive)
same,GI50,SK-MEL-5,> 100 µM (inactive)
same,GI50,SK-OV-3,> 100 µM (inactive)
same,GI50,SN12C,> 100 µM (inactive)
same,GI50,SNB-19,> 100 µM (inactive)
same,GI50,SNB-75,58.3 µM (inactive)
same,GI50,SR,> 100 µM (inactive)
same,GI50,SW-620,> 100 µM (inactive)
same,GI50,T47D,> 100 µM (inactive)
same,GI50,TK-10,> 100 µM (inactive)
same,GI50,U-251,> 100 µM (inactive)
same,GI50,UACC-257,> 100 µM (inactive)
same,GI50,UACC-62,> 100 µM (inactive)
same,GI50,UO-31,> 100 µM (inactive)
N#Cc1c(-c2ccccc2)cc(-c2ccccc2)n(C2OC(CO)C(O)C(O)C2O)c1=S (configuration not stated),GI50,786-0,55.5 µM (inactive) and 38.5 µM (inactive)
same,GI50,A498,19.7 µM (inactive)
same,GI50,A549,32.7 µM (inactive) and 46.1 µM (inactive)
same,GI50,BT-549,32.1 µM (inactive) and 25.6 µM (inactive)
same,GI50,EKVX,> 100 µM (inactive)
same,GI50,HCT-116,37.4 µM (inactive) and 19.7 µM (inactive)
same,GI50,HL-60,36.2 µM (inactive) and 38.7 µM (inactive)
same,GI50,HT-29,23.1 µM (inactive) and 34.4 µM (inactive)
same,GI50,Hs-578T,21.1 µM (inactive) and 31.9 µM (inactive)
same,GI50,IGROV-1,45.5 µM (inactive) and 31 µM (inactive)
same,GI50,KM12,53.2 µM (inactive) and 48.2 µM (inactive)
same,GI50,LOX IMVI,15 µM (inactive) and 26.8 µM (inactive)
same,GI50,MCF7,27.5 µM (inactive) and 43.4 µM (inactive)
same,GI50,MDA-MB-435,21 µM (inactive) and 25.4 µM (inactive)
same,GI50,MDA-N,45 µM (inactive) and 23.2 µM (inactive)
same,GI50,NCI-H23,23.4 µM (inactive) and 29 µM (inactive)
same,GI50,NCI-H460,42.1 µM (inactive) and 28.6 µM (inactive)
same,GI50,NCI/ADR-RES,72.3 µM (inactive)
same,GI50,OVCAR-8,39.1 µM (inactive) and 32.7 µM (inactive)
same,GI50,PC-3,17.1 µM (inactive) and 29.6 µM (inactive)
same,GI50,RPMI-8226,29.2 µM (inactive) and 21.9 µM (inactive)
same,GI50,RXF 393,40.3 µM (inactive)
same,GI50,SF-268,34.2 µM (inactive) and 27.4 µM (inactive)
same,GI50,SK-MEL-5,30.4 µM (inactive) and 15.7 µM (inactive)
same,GI50,SNB-19,38 µM (inactive) and 33 µM (inactive)
same,GI50,SNB-75,33.2 µM (inactive) and 51.2 µM (inactive)
same,GI50,SR,30.8 µM (inactive) and 30.9 µM (inactive)
same,GI50,SW-620,37.2 µM (inactive) and 23.6 µM (inactive)
same,GI50,TK-10,70.3 µM (inactive)
same,GI50,U-251,18.8 µM (inactive)
same,GI50,UO-31,41.2 µM (inactive) and 34.3 µM (inactive)
C[C@@H](O)C(=O)N1[C@@H]2CC3CC[C@]2(CS1(=O)=O)C3(C)C,GI50,786-0,52.8 µM (inactive)
same,GI50,A549,95.1 µM (inactive)
same,GI50,ACHN,64.1 µM (inactive)
same,GI50,BT-549,> 100 µM (inactive)
same,GI50,CAKI-1,> 100 µM (inactive)
same,GI50,CCRF-CEM,24.2 µM (inactive)
same,GI50,COLO 205,79.3 µM (inactive)
same,GI50,DU-145,88.1 µM (inactive)
same,GI50,EKVX,89.7 µM (inactive)
same,GI50,HCC 2998,49.1 µM (inactive)
same,GI50,HCT-116,67.8 µM (inactive)
same,GI50,HCT-15,56.6 µM
same,GI50,HL-60,28.9 µM (inactive)
same,GI50,HOP-62,> 100 µM (inactive)
same,GI50,HOP-92,66.1 µM (inactive)
same,GI50,HT-29,> 100 µM (inactive)
same,GI50,IGROV-1,> 100 µM (inactive)
same,GI50,K562,68.1 µM (inactive)
same,GI50,KM12,82.2 µM (inactive)
same,GI50,LOX IMVI,> 100 µM (inactive)
same,GI50,M14,93.5 µM (inactive)
same,GI50,MCF7,> 100 µM (inactive)
same,GI50,MDA-MB-231,> 100 µM (inactive)
same,GI50,MDA-MB-435,63.8 µM (inactive)
same,GI50,MOLT-4,31.1 µM (inactive)
same,GI50,NCI-H226,23.2 µM (inactive)
same,GI50,NCI-H23,62.2 µM (inactive)
same,GI50,NCI-H460,85.9 µM (inactive)
same,GI50,NCI/ADR-RES,> 100 µM (inactive)
same,GI50,OVCAR-3,> 100 µM (inactive)
same,GI50,OVCAR-4,85.9 µM (inactive)
same,GI50,OVCAR-5,> 100 µM (inactive)
same,GI50,OVCAR-8,> 100 µM (inactive)
same,GI50,PC-3,96.8 µM (inactive)
same,GI50,RPMI-8226,39.7 µM (inactive)
same,GI50,RXF 393,> 100 µM (inactive)
same,GI50,SF-295,> 100 µM (inactive)
same,GI50,SF-539,48.9 µM (inactive)
same,GI50,SK-MEL-28,76.2 µM (inactive)
same,GI50,SK-MEL-2,> 100 µM (inactive)
same,GI50,SK-MEL-5,49.2 µM (inactive)
same,GI50,SK-OV-3,> 100 µM (inactive)
same,GI50,SN12C,55.5 µM (inactive)
same,GI50,SNB-19,65.8 µM (inactive)
same,GI50,SNB-75,> 100 µM (inactive)
same,GI50,SR,18 µM (inactive)
same,GI50,SW-620,28.1 µM (inactive)
same,GI50,T47D,> 100 µM (inactive)
same,GI50,TK-10,> 100 µM (inactive)
same,GI50,U-251,52.1 µM (inactive)
same,GI50,UACC-257,> 100 µM (inactive)
same,GI50,UACC-62,> 100 µM (inactive)
same,GI50,UO-31,> 100 µM (inactive)
